Experimental data: patent USRE42700E1, “Induction of apoptosis in cancer cells” (Sanford-Burnham Medical Research Institute, priority 2001, dated 2011)

Assays:
RARγ = RARγ (Homo sapiens, UniProt P13631); experiment: activation of RARγ on the (TREpal)2-tk-CAT reporter construct; type: cell-based
[1] = test system: human acute megakaryocytic leukemia cell line M07e; experiment: M07e cell growth / proliferation; type: cell-based
Method: (§1) Cell Growth: IL-3-transfected M07e cells have been described by Thacker, D. J., et al., Leukemia 8: 871-877 (1994). Cells were grown in RPMI supplemented with 5 percent heat-inactivated fetal bovine serum (FBS) and 25 μg/ml gentamycin in a […], 5% CO2, and 100% humidity environment. Leukemic cells were obtained from patients who met the criteria for the diagnosis of AML or CML in blast crisis (see Table 1). Studies were approved by the Wayne State University Institutional Review Board. Informed consent was obtained from all patients. Leukemic blasts from patients were isolated using Ficoll hypaque. Cells at the interface between plasma and red blood cells were diluted with sterile PBS, then layered over Ficoll hypaque (1.077 density), and the leukemic cells collected at the interface. The sample to be studied represented greater than 90% blasts. The patient leukemia samples were grown in RPMI medium supplemented with 10% FBS, gentamycin (25 μg/ml), IL-3 (20 ng/ml), SCF (25 ng/ml), GM-CSF (20 ng/ml) and G-CSF (20 ng/ml). Cell growth was assessed using a cell proliferation kit.

[2] = test system: leukemic blasts from patients (AML or CML in blast crisis); experiment: proliferation of patient leukemic blasts; type: cell-based; conditions: Homo sapiens
Method: as §1

patient leukemic cells = experiment: apoptosis of patient leukemic cells by tunnel assay and flow cytometry; type: cell-based, human; conditions: for apoptotic cells: 1 μM, 24 hours
Method: Apoptosis Quantification: Staining of apoptotic cells was performed as described by Gavreli, Y., et al., (J. Cell. Biol. 119: 493-501 (1992)) and Whitacre, C. M., et al., (Cancer Res. 55: 3697-3701 (1995)). After 3-Cl-AHPC treatment, cells were harvested, washed with PBS and resuspended at 1×10^6 cells/ml. Cell suspensions (50 μl) were stained with […] of acridine orange solution ([…]) in PBS in the dark. Cells displaying fragmented DNA were detected using a fluorescent microscope. Apoptotic cells were also detected using a kit. Cells that incorporated fluorescein labeled deoxyuridine triphosphate were detected using flow cytometry.
Flow Cytometry: Flow cytometry was performed on a flow cytometer equipped with an argon ion laser tuned to 15 mW at […] for fluorescence excitation and light scattering. Fluorescein isothiocyanate (FITC) fluorescence was detected using a 530/30 nm band pass filter and propidium iodide (PI) fluorescence was reflected with a 560-nm short pass dichroic filter using a 585/42-nm band pass filter. The doublet discrimination module was used to identify cell aggregates (Sharpless, T., et al., Acta Cytologica 19: 577-581 (1975)). Typically, 20,000 events of list mode data were saved and analyzed.

[3] = test system: leukemic blasts from patient 1; experiment: leukemia colony formation in methylcellulose; type: cell-based, human; conditions: 14 days
Method: Leukemia Colony Formation: Leukemic blasts (1×10^5 cells) from patient 1 (Table 1) were isolated as described above and cultured in methylcellulose supplemented with 20% FCS, SCF, and IL-3, GM-CSF and G-CSF at a final concentration of 10 ng per ml, cells were incubated for 14 days at 37° C. in a 5% CO2 humidified atmosphere in the presence and absence of 3-Cl-AHPC after which time colonies (>40 cells) were counted.

[4] = CFU-GM colony formation, mouse bone marrow; type: cell-based; conditions: mouse, bone marrow CFU-GM progenitor cells
Method: (§2) CFU-GM Colony Formation: The CFU-GM colony assay was performed as described in Parchment et al., (J. Natl. Cancer Inst. 86: 273-280 (1994)).

mouse CFU-GM = experiment: CFU-GM colony formation, mouse bone marrow; type: cell-based
Method: as §2

[5] = test system: PARP in M07e cells and patient leukemic blasts; experiment: PARP cleavage by Western blot; type: cell-based, human; conditions: 1 μM, by 24 hours
Method: (§3) Western Blots: Western blots were performed according to the protocol of Sheikh, M. S., et al., (Oncogene, 9: 3407-3415 (1994)). Logarithmically growing cells were treated with 3-Cl-AHPC for various times and cells were harvested and lysed in Laemmli lysis buffer (0.5 M Tris-HCl, pH 6.8, 0.002M EDTA, 10% glycerol, 10% sodium dodecyl sulfate (SDS), and 5% β-mercaptoethanol). Protein lysates (50 μg/lane) were electrophoresed on 12% SDS-polyacrylamide gels and transferred to nitrocellulose membranes. Membranes were blocked with 5% nonfat dried milk in PBS/0.5% Tween 20 and then incubated with the appropriate antibodies. Horseradish peroxidase-conjugated rabbit anti-mouse IgG was used as the secondary antibody, and bands were developed using the Amersham ECL non-radioactive method.

[6] = test system: Bcl-2 and Mcl-1 in patient leukemic cells and M07e cells; experiment: Bcl-2 and Mcl-1 expression; type: cell-based, human; conditions: during 3-Cl-AHPC-mediated apoptosis
Method: as §3

[7] = test system: prostate cancer LNCaP, lung cancer NCI-H460, breast cancer ZR-75-1 and MDA-MB231 cells; experiment: DAPI staining apoptosis in cancer cell lines; type: cell-based; conditions: 10^−6 M
Method: In FIG. 11, the indicated cancer cells were treated with 10^−6 M 3-Cl-AHPC, trypsinized, washed with PBS, fixed with 3.7% paraformaldehyde, and stained with 50 μg/ml DAPI containing 100 μg/ml DNase-free RNase A to visualize nuclei by fluorescent microscopy. The number of apoptotic cells with nuclear morphology typical of apoptosis, including nuclear fragmentation and condensation, was scored in at least 400 cells in each sample using a fluorescence microscope. In FIG. 12, the indicated cancer cells were treated with 10^−6 M 3-Cl-AHPC, trypsinized, washed with PBS, fixed with 3.7% paraformaldehyde, and stained with 50 μg/ml DAPI containing 100 μg/ml DNase-free RNase A to visualize nuclei and examined by fluorescent microscopy. Number of apoptotic cells with nuclear morphology typical of apoptosis, including nuclear fragmentation and condensation, was scored in at least 400 cells in each sample using a fluorescence microscope.

ZR-75 = experiment: apoptosis induction / cell death in breast cancer cells; type: cell-based, human
[8] = test system: human MX-1 breast adenocarcinoma cells; experiment: MX-1 human mammary adenocarcinoma growth in SCID mice; type: in vivo

Sequence of RARγ (P13631 whole entry, species assumed): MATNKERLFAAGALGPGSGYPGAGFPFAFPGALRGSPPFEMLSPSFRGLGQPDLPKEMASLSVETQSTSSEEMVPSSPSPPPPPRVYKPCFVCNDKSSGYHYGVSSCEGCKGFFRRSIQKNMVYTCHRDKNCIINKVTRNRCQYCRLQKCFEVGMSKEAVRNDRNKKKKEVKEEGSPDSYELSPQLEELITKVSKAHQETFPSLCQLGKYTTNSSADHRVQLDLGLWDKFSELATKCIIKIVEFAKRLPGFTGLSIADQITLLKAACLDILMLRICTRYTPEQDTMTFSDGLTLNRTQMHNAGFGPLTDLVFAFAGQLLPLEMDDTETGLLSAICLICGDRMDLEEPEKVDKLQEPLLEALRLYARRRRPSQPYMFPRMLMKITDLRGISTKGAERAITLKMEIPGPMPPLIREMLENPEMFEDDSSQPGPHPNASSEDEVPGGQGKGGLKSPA

With `O=C(O)/C=C/c1ccc(-c2ccc(O)c(C34CC5CC(CC(C5)C3)C4)c2)c(Cl)c1` [Example 3-Cl-AHPC, (E)-4-[3-(1-Adamantyl)-4-hydroxyphenyl]-3-chlorocinnamic acid] the “activation of RARγ relative to that of 1.0 μM tRA” value (RARγ) was “less than 10%”, the “concentration required to inhibit growth of M07e cells” value [1] was 0.2 µM and the inhibition of growth ([1]; 0.2 μM) was “inhibition of growth”. For the same compound, the inhibition of proliferation ([1]; varying concentrations over time) was “progressive increase in the inhibition of proliferation”, the inhibition at 1 µM [2] was 60 to 90% and the “patient leukemic cells that underwent apoptosis” value (patient leukemic cells) was “over 80%”. For the same compound, the apoptotic cells (patient leukemic cells; patient 1) was 67%, the apoptotic cells (patient leukemic cells; patient 10) was 80% and the “concentration for complete inhibition of leukemia colony formation” value [3] was 600 nM. The IC50 ([3]; Homo sapiens, 336 h, patient 1, read-out: inhibition of leukemia colony formation, ED50 (IC50)) was 375 nM, the IC90 [4] was 315 to 794 nM and the “toxicity to mouse relative to human CFU-GM” value (mouse CFU-GM) was 30 fold. For the same compound, the PARP cleavage [5] was “rapid cleavage of 116-Kd PARP”, the “modulation of Bcl-2 and Mcl-1 expression” value [6] was “no modulation of their expression” and the “induction of apoptosis (DAPI staining)” value [7] was “potently induced apoptosis”. For the same compound, the ED50 (concentration that results in 50% cell death) (ZR-75) was 700 nM, the animal deaths ([8]; dose not stated (Table 5)) was “no animal deaths” and the “inhibition of tumor growth” value ([8]; dose not stated (Table 5)) was 70%. For the same compound, the weight loss ([8]; dose not stated (Table 5)) was “less than 4%”, the “% body wt loss” value ([8]; total dose 91 mg/kg, Qd (3-9)) was −2% and the Drug deaths ([8]; total dose 91 mg/kg, Qd (3-9)) was 0/5. The T/C % ([8]; total dose 91 mg/kg, Qd (3-9)) was 62%, the “% body wt loss” value ([8]; total dose 140 mg/kg, Qd (3-9)) was −4% and the Drug deaths ([8]; total dose 140 mg/kg, Qd (3-9)) was 0/5. For the same compound, the T/C % ([8]; total dose 140 mg/kg, Qd (3-9)) was 56%, the “% body wt loss” value ([8]; total dose 210 mg/kg, Qd (3-9)) was −4% and the Drug deaths ([8]; total dose 210 mg/kg, Qd (3-9)) was 0/5. For the same compound, the Log cell kill ([8]; total dose 210 mg/kg, Qd (3-9)) was 1.2 and the T/C % ([8]; total dose 210 mg/kg, Qd (3-9)) was 30%.
